# Experimental data taken from US3950354A, “Imidazolylacetic acid amides” (Bayer Aktiengesellschaft, priority 1972, dated 1976).
# Like-named read-outs stand apart in the source and are kept apart here.
# What was measured:
# [1] = test system: Trichophyton mentagrophytes; assay: Anti-mycotic spectrum of action in vitro, series dilution test (Trichophyton mentagrophytes); type: cell-based; details: read-out: Minimum inhibitory concentration
# Method: (§1) Determination of the anti-mycotic spectrum of action in vitro, by the series dilution test
# (§2) The nutrient substrates used were Sabouraud's milieu d'epreuve for dermatophytes and moulds, and meat broth-glucose bouillon for blastomycetes and biphase fungi.
# (§3) The incubation temperature was 28°C and the incubation time was 24 to 96 hours.
# Candida albicans [2] = assay: Anti-mycotic spectrum of action in vitro, series dilution test (Candida albicans); type: cell-based; details: read-out: Minimum inhibitory concentration
# Method: as §1, §2, §3
# Penicillium commune = assay: Anti-mycotic spectrum of action in vitro, series dilution test (Penicillium commune); type: cell-based; details: read-out: Minimum inhibitory concentration
# Method: as §1, §2, §3
# Candida albicans [3] = assay: Candidosis of mice; type: in vivo, Mice of type SPF-CF1; details: oral, 50, 75, 100 and 150 mg/kg, one hour before and 7 hours after infection; 1 to 2 × 10^6 Candida cells intravenously
# Method: Mice of type SPF-CF1 were intravenously infected with 1 to 2 × 10^6 Candida cells which were suspended in physiological sodium chloride solution.
# One hour before and 7 hours after infection, the animals were treated orally with 50, 75, 100 and 150 mg of the compounds according to the invention/kg of body weight. Untreated control animals died of the infection, 3 to 6 days after infection.
# Aspergillus niger = assay: Anti-mycotic spectrum of action in vitro, series dilution test (Aspergillus niger); type: cell-based; details: * = 90% inhibition of growth, read-out: Minimum inhibitory concentration
# Method: as §1, §2, §3
# Microsporon felineum = assay: Anti-mycotic spectrum of action in vitro, series dilution test (Microsporon felineum); type: cell-based; details: read-out: Minimum inhibitory concentration
# Method: as §1, §2, §3
# [4] = n.s. = no serum added, Sabouraud's milieu d'epreuve, 28°C, 24 to 96 hours
# [5] = n.s. = no serum added, meat broth-glucose bouillon, 28°C, 24 to 96 hours
# [6] = n.s. = no serum added, + = 50% inhibition of growth
# [7] = n.s. = no serum added, * = 90% inhibition of growth
"MIC [1, 4] [µg/mL]",MIC (Candida albicans [2]; [5]) [µg/mL],"MIC (Penicillium commune; 28°C, 24 to 96 hours) [µg/mL]",MIC ([1]; w.s. = with 30% serum added) [µg/mL],MIC (Candida albicans [2]; w.s. = with 30% serum added) [µg/mL],Compound,Action in the case of Candida albicans (survivals on 6th day after infection) (Candida albicans [3]),further results
64,> 64,> 64,64,> 64,"O=C(Nc1cccc(C(F)(F)F)c1)C(c1ccccc1)(c1ccccc1)n1ccnc1 [Example 4, ω,ω-diphenyl-ω-imidazolyl-(1)-acetic acid 3-trifluoromethylanilide]",–,–
32,–,> 64,32,–,"Cc1cc(Cl)ccc1NC(=O)C(c1ccccc1)(c1ccccc1)n1ccnc1 [Example 5, ω,ω-diphenyl-ω-imidazolyl-(1)-acetic acid 2-methyl-4-chloro-anilide]",–,"MIC (Candida albicans [2]; [6]): 8 µg/mL; MIC (Candida albicans [2]; w.s. = with 30% serum added, + = 50% inhibition of growth): 64 µg/mL"
–,–,–,8,–,"O=C(Nc1ccc(Cl)cc1Cl)C(c1ccccc1)(c1ccccc1)n1ccnc1 [Example 6, ω,ω-diphenyl-ω-imidazolyl-(1)-acetic acid 2,4-dichloroanilide]",–,"MIC [1, 7]: 1 µg/mL; MIC (Candida albicans [2]; [7]): 1 µg/mL; MIC (Candida albicans [2]; w.s. = with 30% serum added, * = 90% inhibition of growth): 32 µg/mL; MIC (Penicillium commune; * = 90% inhibition of growth): 64 µg/mL; MIC (Aspergillus niger; n.s. = no serum added): 4 µg/mL; MIC (Aspergillus niger; w.s. = with 30% serum added): 8 µg/mL; MIC (Microsporon felineum; * = 90% inhibition of growth): 4 µg/mL"
32,> 64,> 64,32,> 64,"O=C(N1CCS(=O)(=O)CC1c1ccccc1)C(c1ccc(Cl)cc1)(c1ccc(Cl)cc1)n1ccnc1 (stereo not drawn) [Example 11, 4-[ω,ω-di-(4-chlorophenyl)-ω-imidazolyl-(1)-methylcarbonyl]-3-phenyl-1,4-thiazine dioxide]",–,–
–,–,> 64,–,> 64,"CCOC(=O)N1CCN(C(=O)C(c2ccccc2)(c2ccccc2)n2ccnc2)CC1 [Example 12, 4-[ω,ω-diphenyl-ω-imidazolyl-(1)-methylcarbonyl]-1-ethoxycarbonyl-piperazine]",+ (50% survivals on 6th day after infection),"MIC [1, 6]: 64 µg/mL; MIC (Candida albicans [2]; [6]): 64 µg/mL"
10,> 100,> 100,40,–,"O=C(N1CCN(c2ccccc2Cl)CC1)C(c1ccccc1)(c1ccccc1)n1ccnc1 [Example 13, 4-[ω,ω-diphenyl-ω-imidazolyl-(1)-methylcarbonyl]-1-o-chlorophenyl-piperazine]",–,"MIC (Aspergillus niger; n.s. = no serum added): 1 µg/mL; MIC (Aspergillus niger; w.s. = with 30% serum added): 100 µg/mL; MIC (Microsporon felineum; 28°C, 24 to 96 hours): 100 µg/mL"

Compound,"MIC [1, 4] [µg/mL]",MIC (Candida albicans [2]; [5]) [µg/mL],"MIC (Penicillium commune; 28°C, 24 to 96 hours) [µg/mL]",MIC ([1]; w.s. = with 30% serum added) [µg/mL],MIC (Candida albicans [2]; w.s. = with 30% serum added) [µg/mL],Action in the case of Candida albicans (survivals on 6th day after infection) (Candida albicans [3]),further results
"O=C(N1CCS(=O)(=O)CC1)C(c1ccc(Cl)cc1)(c1ccc(Cl)cc1)n1ccnc1 [Example 2, [ω,ω-di(4-chlorophenyl)-ω-imidazolyl-(1)-methylcarbonyl-(4)]-1,4-thiazine dioxide]",100,> 100,> 100,–,–,+ (50% survivals on 6th day after infection),–
"O=C(NC1CCCCC1)C(c1ccccc1)(c1ccccc1)n1ccnc1 [Example 7, ω,ω-diphenyl-ω-imidazolyl-(1)-acetic acid cyclohexylamide]",–,–,> 64,> 64,8,++ (60 to 80% survivials on 6th day after infection),"MIC [1, 7]: 32 µg/mL; MIC (Candida albicans [2]; [7]): 4 µg/mL"
